Here are results for two compounds from US6608083B1, “Quinoline derivatives(2)” (SmithKline Beecham Farmaceutici S.p.A, priority 1994, dated 2003).

Molecules are shown by their SMILES. pKi: −log10 of the molar value.

One series has as its target T1, NK3 receptor (Cavia porcellus, UniProt P30098).
T1 sequence (P30098 1-440): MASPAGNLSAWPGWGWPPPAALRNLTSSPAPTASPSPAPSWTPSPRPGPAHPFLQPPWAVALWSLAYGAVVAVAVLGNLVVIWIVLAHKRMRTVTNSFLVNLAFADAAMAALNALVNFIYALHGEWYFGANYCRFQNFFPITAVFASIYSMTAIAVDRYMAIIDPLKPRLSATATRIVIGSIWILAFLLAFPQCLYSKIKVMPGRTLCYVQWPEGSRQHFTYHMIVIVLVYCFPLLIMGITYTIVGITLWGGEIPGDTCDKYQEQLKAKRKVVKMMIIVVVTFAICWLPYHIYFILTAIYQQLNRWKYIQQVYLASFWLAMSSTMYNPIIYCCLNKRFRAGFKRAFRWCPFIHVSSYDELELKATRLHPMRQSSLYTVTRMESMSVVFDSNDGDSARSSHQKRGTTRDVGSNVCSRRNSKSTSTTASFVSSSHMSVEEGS
The experiment in a line: Binding: displacement of [3H]-Senktide / [125I]-[Me-Phe7]-NKB, guinea-pig cortex membranes. (In a radioligand displacement assay an active substance lowers the binding of a labelled ligand.)

Procedure for NK3 receptor: The activity of the compounds of the present invention, as NK3 ligands, is determined by their ability to inhibit the binding of the radiolabelled NK3 ligands, [^125I]-[Me-Phe^7]-NKB or [^3H]-Senktide, to guinea-pig and human NK3 receptors (Renzetti et al, 1991, Neuropeptide, 18, 104-114; Buell et al, 1992, FEBS, 299(1), 90-95; Chung et al, 1994, Biochem. Biophys. Res. Commun., 198(3), 967-972). […] Binding assays provide for each compound tested a mean IC50 value of 2-5 separate experiments performed in duplicate or triplicate. […] The NK3-antagonist activity of the compounds of the present invention is determined by their ability to inhibit senktide-induced contraction of the guinea-pig ileum (Maggi et al, 1990, Br. J. PharmacoL, 101, 996-1000) and rabbit isolated iris sphincter muscle (Hall et al., 1991, Eur. J. PharmacoL, 199, 9-14) and human NK3 receptors-mediated Ca^++ mobilization (Mochizuki et al, 1994, J. Bio. Chem., 269, 9651-9658). Guinea-pig and rabbit in-vitro functional assays provide for each compound tested a mean KB value of 3-8 separate experiments, where KB is the concentration of the individual compound required to produce a 2-fold rightward shift in the concentration-response curve of senktide. Human receptor functional assay allows the determination of the concentration of the individual compound required to reduce by 50% (IC50 values) the Ca^++ mobilization induced by the agonist NKB.

Regarding `CCc1c(-c2ccccc2)nc2ccccc2c1C(=O)NC(CC)c1ccccc1` (stereo not shown) [Example 48], the melting point – broadly, the temperature of the solid-liquid transition – was in the range of 118 to 120 °C. The negative-log Ki (pKi) (usually the negative decadic logarithm of the Ki, by convention in mol/L) on NK3 receptor was 7.92.
Compound `CCC(NC(=O)c1c(OC)c(-c2ccccc2)nc2ccccc12)c1ccccc1` (stereo not shown) [Example 47] displayed a melting point of 132 to 134 °C. This compound showed a pKi at NK3 receptor of 8.06.
